Results: US10442804B2, “Compounds for the treatment of hepatitis B virus infection” (Gilead Sciences, Inc., priority 2017, dated 2019)
Where two headings read alike, the source gives them in different places.

What was measured:
[1] = system: HBV-infected NTCP-HepG2 cells, secreted HBsAg; assay: microbe, parasite or virus in culture; assay type: cell-based, hepatitis B virus (genotype D, AD38-derived); conditions: secreted HBsAg in supernatant after 5 days, geometric mean of minimum four determinations, read-out: NTCP HBsAg EC50
How it was run: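 NTCP-HepG2 cells were infected with genotype D HBV at 4000 genome equivalents/cell, then seeded 4 days post-infection with serially diluted compounds (1% DMSO) for 5 days. Supernatant HBsAg was measured by chemiluminescent MSD immunoassay. EC50 from four-parameter fit, geometric mean of ≥4 determinations.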

[2] = system: MT-4 cell line (HTLV-1 transformed, human T lymphoblastoid cells); assay: MT-4 cytotoxicity assay; assay type: cell-based; conditions: five days, Cell Titer Glo luminescence
MT-4 cytotoxicity assay = assay type: cell-based, human; conditions: human, five days, Cell Titer Glo luminescence; read-out: MT-4 CC50
[3] = In vitro metabolic stability, hepatocyte stability (rat); assay type: in vitro ADME; conditions: Rat hepatocytes, read-out: hepatocyte stability T1/2 (converted)
Protocol: (§1) Biological Example 3: In Vitro Metabolic Stability
(§2) For hepatocyte stability incubations, cells were obtained from BioreclamationIVT (Baltimore, Md.), thawed according to the manufacturer's directions, and resuspended to a final concentration of 1×10^6 cells/mL in Krebs-Henseleit buffer prewarmed to 37° C. The total cell count and the proportion of viable cells were determined by Trypan Blue dye exclusion using a hemocytometer. The final concentration of test compounds and positive controls was 2 μM. Incubations were carried out in duplicate wells of a 24-well plate out with gentle shaking at 37° C. under a humid atmosphere of 95% air/5% CO2 (v/v). Aliquots (50 μL) were removed after 0, 1, 3, and 6 hours and added to 100 μL quenching solution. Samples were then processed and analyzed in a manner similar to the microsomal stability samples.
(§3) Quantification of test compounds and positive controls were performed using analyte/internal standard peak area ratios (PAR) measured on a Q-Exactive mass spectrometer (Thermo Scientific, San Jose, Calif.) coupled to an Aria Transcend LX-4 multiplex UHPLC system (Thermo Scientific, San Jose, Calif.). […] Half-lives of compounds in the incubations were calculated from extracted data using GMSU/QuickCalc (Gubbs, Inc.) and data are summarized in the following Table 2.

[4] = In vitro metabolic stability, hepatocyte stability (dog); assay type: in vitro ADME; conditions: Dog hepatocytes, read-out: hepatocyte stability T1/2 (converted)
Protocol: as §1, §2, §3

[5] = In vitro metabolic stability, hepatocyte stability (cynomolgus monkey); assay type: in vitro ADME; conditions: Cyno hepatocytes, read-out: hepatocyte stability T1/2 (converted)
Protocol: as §1, §2, §3

[6] = In vitro metabolic stability, hepatocyte stability (human); assay type: in vitro ADME; conditions: Human hepatocytes, read-out: hepatocyte stability T1/2 (converted)
Protocol: as §1, §2, §3

[7] = system: Human iPSC derived iCell GABAergic Neurons; assay: Human iPSC neurite outgrowth assay; assay type: cell-based
Protocol: Biological Example 4: Toxicology Study
Human iPSC Neurite Outgrowth Assay
Human induced pluripotent stem cell (iPSC) derived iCell GABAergic Neurons (Cellular Dynamics Inc.) were seeded at a density of 67,500 cells per square centimeter into 384 well plates. The neurons were plated for 1 hour in attachment media before exchange for serum-free growth media (Cellular Dynamics Inc.). The serum-free growth media was exchanged for fresh media and the plated neurons were treated with test compounds and control compounds at 6 concentrations (1 nM-100 μM) at 4 and 24 hour timepoints in triplicate wells. Optimum neuron cell attachment to the plates was obtained at the 24 hour timepoint. Vincristine was utilized as the positive control for toxic inhibition of neurite outgrowth and 0.1% DMSO treatment was used for control treatment of neurons. Celltracker and DRAQ7 stains were applied prior to fixation of cells to assess nuclear and cell viability. Cells were then fixed for 20 minutes in 4% formaldehyde in PBS containing Hoechst dye and then fixative was replaced with PBS twice. High content imaging was performed with 9 fields of 20× magnification on a CX7 HCS system with an algorithm to enable quantification of neurite lengths and neurite branch points in all treatment groups. The results of the counts and measurements were then analyzed by the strictly standardized mean difference (SSMD) method of analysis to measure effect size for any decreases in mean neurite total length per cell (microns) or changes in mean branch point counts per cell (PhenoVista Biosciences, San Diego). FIG. 1 depicting plots of mean branch point counts per cell as a function of concentration for Vincristine, RG783/R07020322, and Compound 73 (free base, purified without addition of TFA). […]

Compound: COCCCOc1cc2c(cc1Cl)-c1cc(=O)c(C(=O)O)cn1[C@H]1[C@@H]2CCC1(C)C (racemic) [Example 32, cis-10-chloro-11-(3-methoxypropoxy)-3,3-dimethyl-7-oxo-1,2,3,3a,7,12b-hexahydrocyclopenta[c]pyrido[2,1-a]isoquinoline-6-carboxylic acid]
- EC50 [1]: 120 nM
- CC50 [2]: 6 µM

Compound: COCCCOc1cc2c(cc1Cl)-c1cc(=O)c(C(=O)O)cn1N1[C@@H]2CCC1(C)C (single isomer, unassigned) [Example 5]
- EC50 ([1]; Hepatitis B virus, 120 h): 1.7 nM
- CC50 at 5 days (MT-4 cytotoxicity assay): > 10 µM
- half-life at 2 μM [3]: > 2370 min
- half-life at 2 μM [4]: > 2370 min
- half-life at 2 μM [5]: 1250 min
- half-life at 2 μM [6]: > 2370 min

Compound: COCCCOc1cc2c(cc1Cl)-c1cc(=O)c(C(=O)O)cn1[C@H]1[C@@H]2CCC1(C)C (single isomer, unassigned) [Example 33]
- EC50 ([1]; Hepatitis B virus, 120 h): 1.8 nM
- CC50 at 5 days (MT-4 cytotoxicity assay): 7.9 µM
- half-life at 2 μM [3]: 96 min
- half-life at 2 μM [4]: 342 min
- half-life at 2 μM [5]: 336 min
- half-life at 2 μM [6]: 1300 min

Compound: COCCCOc1cc2c(cc1COC)-c1cc(=O)c(C(=O)O)cn1N1[C@@H]2CCC1(C)C [Example 73, (R)-11-(methoxymethyl)-12-(3-methoxypropoxy)-3,3-dimethyl-8-oxo-2,3,8,13b-tetrahydro-1H-pyrido[2,1-a]pyrrolo[1,2-c]phthalazine-7-carboxylic acid]
- EC50 ([1]; Hepatitis B virus, 120 h): 1.9 nM
- CC50 at 5 days (MT-4 cytotoxicity assay): > 10 µM
- neurite total length and branch point counts [7]: No significant effects

Compound: COCCCOc1cc2c(cc1COC)-c1cc(=O)c(C(=O)O)cn1N1[C@@H]2COCC1(C)C [Example 102, (S)-12-(methoxymethyl)-13-(3-methoxypropoxy)-4,4-dimethyl-9-oxo-3,4,9,14b-tetrahydro-1H-[1,4]oxazino[3,4-a]pyrido[1,2-c]phthalazine-8-carboxylic acid]
- EC50 ([1]; Hepatitis B virus, 120 h): 11.5 nM
- CC50 at 5 days (MT-4 cytotoxicity assay): > 10 µM

Compound: COC(C)(C)C#Cc1cc2c(cc1OC(F)F)-c1cc(=O)c(C(=O)O)cn1N1[C@@H]2CCC1(C)C [Example 103, (R)-11-(difluoromethoxy)-12-(3-methoxy-3-methylbut-1-yn-1-yl)-3,3-dimethyl-8-oxo-2,3,8,13b-tetrahydro-1H-pyrido[2,1-a]pyrrolo[1,2-c]phthalazine-7-carboxylic acid]
- EC50 ([1]; Hepatitis B virus, 120 h): 0.82 nM
- CC50 at 5 days (MT-4 cytotoxicity assay): > 10 µM

Compound: CC1(C)CC[C@@H]2c3cc(OCC45CC(C#N)(C4)C5)c(OC(F)F)cc3-c3cc(=O)c(C(=O)O)cn3N21 [Example 104, (R)-12-((3-cyanobicyclo[1.1.1]pentan-1-yl)methoxy)-11-(difluoromethoxy)-3,3-dimethyl-8-oxo-2,3,8,13b-tetrahydro-1H-pyrido[2,1-a]pyrrolo[1,2-c]phthalazine-7-carboxylic acid]
- EC50 ([1]; Hepatitis B virus, 120 h): 2.7 nM
- CC50 at 5 days (MT-4 cytotoxicity assay): > 10 µM

Compound: COCCCOc1cc2c(cc1OC)-c1cc(=O)c(C(=O)O)cn1[C@H](C(C)C)C2 [RG7834/R07020322]
- neurite total length and branch point counts [7]: significant decreases
- Decreased Neurite Length SSMD Values ([7]; human, 4 h, 10 μM): −3.8
- Branch Point Count SSMD Values ([7]; human, 4 h, 100 μM): −5.2
- Decreased Neurite Length SSMD Values ([7]; human, 4 h, 100 μM): −4.0
- Branch Point Count SSMD Values ([7]; human, 24 h, 1 μM): −3.3
- Decreased Neurite Length SSMD Values ([7]; human, 24 h, 1 μM): −3.4
- Branch Point Count SSMD Values ([7]; human, 24 h, 10 μM): −3.4
- Decreased Neurite Length SSMD Values ([7]; human, 24 h, 10 μM): −5.9
- Branch Point Count SSMD Values ([7]; human, 24 h, 100 μM): −5.0
- Decreased Neurite Length SSMD Values ([7]; human, 24 h, 100 μM): −4.5

Compound: CC[C@]1(O)C[C@H]2CN(CCc3c([nH]c4ccccc34)[C@@](C(=O)OC)(c3cc4c(cc3OC)N(C=O)[C@H]3[C@@](O)(C(=O)OC)[C@H](OC(C)=O)[C@]5(CC)C=CCN6CC[C@]43[C@@H]65)C2)C1 [Vincristine]
- neurite total length and branch point counts ([7]; 4 and 24 hour treatments, vs 0.1% DMSO treated neurons, SSMD analysis): significant decreases
- Branch Point Count SSMD Values ([7]; 4 hr, 0.001 μM, vs 0.1% DMSO): NS (NS = no significant effect and >−3 SSMD Values.)
- Decreased Neurite Length SSMD Values ([7]; 4 hr, 0.001 μM, vs 0.1% DMSO): NS (NS = no significant effect and >−3 SSMD Value.)
- Branch Point Count SSMD Values ([7]; 4 hr, 0.01 μM, vs 0.1% DMSO): NS (NS = no significant effect and >−3 SSMD Values.)
- Decreased Neurite Length SSMD Values ([7]; 4 hr, 0.01 μM, vs 0.1% DMSO): NS (NS = no significant effect and >−3 SSMD Value.)
- Branch Point Count SSMD Values ([7]; 4 hr, 0.1 μM, vs 0.1% DMSO): NS (NS = no significant effect and >−3 SSMD Values.)
- Decreased Neurite Length SSMD Values ([7]; 4 hr, 0.1 μM, vs 0.1% DMSO): NS (NS = no significant effect and >−3 SSMD Value.)
- Branch Point Count SSMD Values ([7]; 4 hr, 1 μM, vs 0.1% DMSO): NS (NS = no significant effect and >−3 SSMD Values.)
- Decreased Neurite Length SSMD Values ([7]; 4 hr, 1 μM, vs 0.1% DMSO): −7.3
- Branch Point Count SSMD Values ([7]; 4 hr, 10 μM, vs 0.1% DMSO): −3.0
- Decreased Neurite Length SSMD Values ([7]; 4 hr, 10 μM, vs 0.1% DMSO): −5.7
- Branch Point Count SSMD Values ([7]; 4 hr, 100 μM, vs 0.1% DMSO): −3.5
- Decreased Neurite Length SSMD Values ([7]; 4 hr, 100 μM, vs 0.1% DMSO): −10
- Branch Point Count SSMD Values ([7]; 24 hr, 0.001 μM, vs 0.1% DMSO): NS (NS = no significant effect and >−3 SSMD Values.)
- Decreased Neurite Length SSMD Values ([7]; 24 hr, 0.001 μM, vs 0.1% DMSO): NS (NS = no significant effect and >−3 SSMD Value.)
- Branch Point Count SSMD Values ([7]; 24 hr, 0.01 μM, vs 0.1% DMSO): NS (NS = no significant effect and >−3 SSMD Values.)
- Decreased Neurite Length SSMD Values ([7]; 24 hr, 0.01 μM, vs 0.1% DMSO): NS (NS = no significant effect and >−3 SSMD Value.)
- Branch Point Count SSMD Values ([7]; 24 hr, 0.1 μM, vs 0.1% DMSO): NS (NS = no significant effect and >−3 SSMD Values.)
- Decreased Neurite Length SSMD Values ([7]; 24 hr, 0.1 μM, vs 0.1% DMSO): NS (NS = no significant effect and >−3 SSMD Value.)
- Branch Point Count SSMD Values ([7]; 24 hr, 1 μM, vs 0.1% DMSO): −3.1
- Decreased Neurite Length SSMD Values ([7]; 24 hr, 1 μM, vs 0.1% DMSO): −4.9
- Branch Point Count SSMD Values ([7]; 24 hr, 10 μM, vs 0.1% DMSO): −3.6
- Decreased Neurite Length SSMD Values ([7]; 24 hr, 10 μM, vs 0.1% DMSO): −5.4
- Branch Point Count SSMD Values ([7]; 24 hr, 100 μM, vs 0.1% DMSO): −6.0
- Decreased Neurite Length SSMD Values ([7]; 24 hr, 100 μM, vs 0.1% DMSO): −6.6
- neuron counts or neuron viability ([7]; any of the tested concentrations (1 nM-100 μM), vs 0.1% DMSO control, SSMD analysis): No significant changes of effect
